Our source for the IC50 values is BindingDB's records for PubMed 37235998 (Nanjing University of Chinese Medicine).

Assay [1] addresses T1, Isocitrate dehydrogenase [NADP], mitochondrial (Homo sapiens, UniProt P48735).
T1 sequence (P48735 whole entry): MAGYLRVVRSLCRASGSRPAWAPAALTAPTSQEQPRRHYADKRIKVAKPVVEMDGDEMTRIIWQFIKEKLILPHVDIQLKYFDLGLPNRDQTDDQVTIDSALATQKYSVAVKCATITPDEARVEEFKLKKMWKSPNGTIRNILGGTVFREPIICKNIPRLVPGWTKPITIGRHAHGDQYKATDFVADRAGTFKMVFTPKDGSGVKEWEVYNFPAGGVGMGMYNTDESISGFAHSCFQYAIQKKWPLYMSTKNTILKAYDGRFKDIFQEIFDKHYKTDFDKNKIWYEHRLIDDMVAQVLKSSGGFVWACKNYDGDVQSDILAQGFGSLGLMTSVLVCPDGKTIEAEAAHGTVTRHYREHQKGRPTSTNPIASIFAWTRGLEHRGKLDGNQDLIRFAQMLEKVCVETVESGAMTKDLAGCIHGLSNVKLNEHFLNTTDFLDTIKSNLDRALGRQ
Briefly: Inhibition of N-terminal His-tagged human recombinant IDH2 R140Q mutant (41 to 452) expressed in baculovirus system incubated for 60 mins by size-exclusion chromatography analysis. In general terms: SEC sorts molecules by how far they enter the pores of the column.

The target in assay [2] is Isocitrate dehydrogenase [NADP] cytoplasmic (Homo sapiens, UniProt O75874). The assay is described as follows: Inhibition of N-terminal His-tagged human recombinant IDH1 R132H mutant (1 to 414) expressed in Sf9 incubated for 60 mins by size-exclusion chromatography analysis.
Chain of Isocitrate dehydrogenase [NADP] cytoplasmic (O75874 2-414 R132H limits assumed): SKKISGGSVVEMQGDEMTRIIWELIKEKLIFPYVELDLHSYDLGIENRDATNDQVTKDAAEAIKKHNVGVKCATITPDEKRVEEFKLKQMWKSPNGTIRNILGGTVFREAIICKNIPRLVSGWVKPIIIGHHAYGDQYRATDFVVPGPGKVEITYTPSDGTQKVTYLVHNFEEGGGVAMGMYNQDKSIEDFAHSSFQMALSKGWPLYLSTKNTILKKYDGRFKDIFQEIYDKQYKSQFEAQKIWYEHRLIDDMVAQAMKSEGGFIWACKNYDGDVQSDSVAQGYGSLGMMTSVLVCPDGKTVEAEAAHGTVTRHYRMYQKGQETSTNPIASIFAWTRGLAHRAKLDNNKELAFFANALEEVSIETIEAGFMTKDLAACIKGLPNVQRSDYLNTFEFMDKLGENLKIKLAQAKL

The structures appear in SMILES notation. pIC50: −log10 of the molar value.

Broadly, the pIC50 is the IC50 on a negative log10 scale, so that one unit is a factor of ten. Consider `C[C@@H](Nc1nc(Nc2ccnc(C3(C#N)CC3)c2)nc(-c2cccc(C(F)(F)F)n2)n1)C(F)(F)F` [US10028961, Compound 352], for which, in assay [1], the pIC50 was over 7.30. Regarding `FC1(F)CCC(Nc2nc(NC3Cc4ccccc4C3)nc(-c3cccc(C(F)(F)F)n3)n2)C1` (stereo not drawn) [US10028961, Compound 152], the negative-log IC50 (pIC50) in assay [2] and in assay [1] was over 7.30 in each case.
